This is an account of results in US20240317691A1, “Compounds for Modulating Epithelial 15-(S)-Lipoxygenase-2 and Methods of Use for Same” (The Regents of the University of California, priority 2021, published 2024).

Where “and” joins values, the source holds several entries; their conditions need not be identical. Equal values may be shown once. Read-outs that look alike come from different tables or passages of the source.

One experiment concerns the target ovine COX-1 (Ovis aries (Sheep), UniProt P05979). The experiment in a line: Cyclooxygenase selectivity assay, COX-1. The note with it: estimated at 25 μM inhibitor concentration, 100 μM AA. The class given is biochemical. As for the experimental part:
(§1) Cyclooxygenase selectivity assay was performed as previously described.^24 Approximately 3 μg of either ovine COX-1 (COX-1) or human recombinant COX-2 (COX-2) (Cayman Chemical) were added to buffer containing 0.1 M Tris-HCl buffer (pH 8.0), 5 mM EDTA, 2 mM phenol, and 1 μM hemin at 37° C. […] The reaction was then initiated by adding approximately 100 μM AA in the reaction cell, as indicated in the enzymatic protocol (Cayman Chemicals). A Hansatech DWI oxygen electrode was utilized for data collection and the consumption of oxygen was recorded.
(§2) Indomethacin and the vehicle of inhibitor (DMSO) were the positive and negative controls, respectively. The percent inhibition of the enzyme was calculated by comparing the rates of O2 consumption for experimental samples (with inhibitor) to the rates of control samples (with DMSO).

The target in a further experiment is human recombinant COX-2 (Homo sapiens (Human), UniProt P35354). As to the kind of experiment: Cyclooxygenase selectivity assay, COX-2. The class given is biochemical. The note with it: estimated at 25 μM inhibitor concentration, 100 μM AA. As for the experimental part: as §1, §2
Sequence of human recombinant COX-2 (P35354 18-604): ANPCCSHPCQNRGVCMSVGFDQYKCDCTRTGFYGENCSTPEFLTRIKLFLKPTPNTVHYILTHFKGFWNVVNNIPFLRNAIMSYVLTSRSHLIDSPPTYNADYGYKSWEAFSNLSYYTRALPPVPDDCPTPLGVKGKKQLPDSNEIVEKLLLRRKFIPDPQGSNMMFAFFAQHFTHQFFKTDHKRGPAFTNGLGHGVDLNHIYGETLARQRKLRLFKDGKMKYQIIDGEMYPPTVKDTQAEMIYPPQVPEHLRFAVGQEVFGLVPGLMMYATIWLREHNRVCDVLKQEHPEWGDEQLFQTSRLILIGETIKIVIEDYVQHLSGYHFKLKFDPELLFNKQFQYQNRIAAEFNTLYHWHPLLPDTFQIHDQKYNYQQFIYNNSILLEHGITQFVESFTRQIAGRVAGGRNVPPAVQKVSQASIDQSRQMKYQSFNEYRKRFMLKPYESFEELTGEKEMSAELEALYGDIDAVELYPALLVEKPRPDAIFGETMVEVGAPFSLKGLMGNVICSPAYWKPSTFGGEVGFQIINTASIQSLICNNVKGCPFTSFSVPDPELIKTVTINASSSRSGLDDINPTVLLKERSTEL
A further experiment has as its target h5-LOX (Homo sapiens (Human), UniProt P09917). The experiment in a line: Lipoxygenase UV-Vis-based assay, h5-LOX selectivity.
Another experiment concerns the target h12-LOX (Homo sapiens (Human), UniProt P18054). The experiment in a line: Lipoxygenase UV-Vis-based assay, h12-LOX selectivity.
A further experiment concerns the target h15-LOX-1 (Homo sapiens (Human), UniProt P16050). The experiment in a line: Lipoxygenase UV-Vis-based assay, h15-LOX-1 selectivity.
Experiment [1] has as its target T1, h15-LOX-2 (Homo sapiens (Human), UniProt O15296). The experiment in a line: Lipoxygenase UV-Vis-based IC50 assay, h15-LOX-2. The settings on record: for inhibition at 20 µM: read-out: % Inhibition at 20 μM; for potency against h15-LOX-2, SAR statement: compared with original hits.
Procedure: (§3) The full IC50 experiments were done with at least five different inhibitor concentrations. All reaction mixtures were 2 mL in volume and constantly stirred using a magnetic stir bar at room temperature (23° C.) with the appropriate amount of LOX isozyme [h5-LOX (˜200 nM); h12-LOX (˜50 nM); h15-LOX-1 (˜60 nM); h15-LOX-2 (˜200 nM)]. […] Reactions with h12-LOX were carried out in 25 mM HEPES (pH 8.0) 0.01% Triton X-100 and 10 μM AA. Reactions with the crude, ammonium sulfate precipitated h5-LOX were carried out in 25 mM HEPES (pH 7.3), 0.3 mM CaCl2), 0.1 mM EDTA, 0.2 mM ATP, 0.01% Triton X100 and 10 μM AA. Reactions with h15-LOX-1 and h15-LOX-2 were carried out in 25 mM HEPES buffer (pH 7.5), 0.01% Triton X-100 and 10 μM AA. […] IC50 values were obtained by determining the percent inhibition at various inhibitor concentrations and plotting against inhibitor concentration, followed by a hyperbolic saturation curve fit. The percent inhibition was calculated by comparing the enzymatic rate of the control (DMSO) to the enzymatic rate with the respective inhibitor present. The experiments used for generating the saturation curves were performed in duplicate or triplicate, depending on the quality of the data.
Experiment [2] concerns the target T1, h15-LOX-2. As to the kind of experiment: Pseudo-peroxidase activity assay (redox). The class given is biochemical. The settings on record: 20 μM inhibitor, degradation of 13-HpODE at 234 nm; more than 25% degradation indicates redox activity.
Procedure: 13-HpODE was used as the oxidant and BWb70c as the positive control. […] The reaction mixtures were constantly stirred at 23° C. […] The negative controls used were: enzyme alone with the product, enzyme alone with inhibitor, as well as inhibitor alone with the product. These formed a baseline for the assay, reflecting non-pseudo-peroxidase dependent hydroperoxide product decomposition. To rule out the auto-inactivation of the enzyme from pseudo-peroxidase cycling, the h15-LOX-2 residual activity was determined by the addition of 20 μM AA at the end of each reaction.
Experiment [3] addresses T1, h15-LOX-2. As to the kind of experiment: Steady-state inhibition kinetics of h15-LOX-2. The class given is biochemical.
Procedure: Reactions were initiated by adding h15-LOX-2 to a constantly stirring 2 mL reaction mixture containing 0.7 μM-20 μM AA in 25 mM HEPES buffer (pH 7.5), in the presence of 0.01% Triton X-100. Kinetic data were obtained by recording initial enzymatic rates, at varied inhibitor concentrations, and subsequently fitting the data to the Henri-Michaelis-Menten equation using KaleidaGraph (Synergy) to determine Vmax (μmol/min) and Km (μM). The primary data were then plotted in Dixon format using Microsoft Excel by graphing 1/v vs. [I] μM at the chosen substrate concentrations. From the Dixon plots, the slope at each substrate concentration was extracted and plotted against 1/[S] μM to produce the Dixon replots. The Kic equilibrium constant of dissociation was calculated by dividing Km/Vmax by the slope of the replot. To obtain Kiu, 1/Vmax was divided by the y-intercept of the replot. Kic and Kiu are defined as the equilibrium constant of dissociation from the catalytic and secondary sites, respectively.
Experiment [4] addresses T1, h15-LOX-2. The experiment in a line: Inhibitors as substrates of h15-LOX-2 (UV-Vis and RP-HPLC). In kind it is biochemical. The note with it: 20 μM inhibitor, absence of AA.
Procedure: All buffer conditions and the determination of each rate are identical to the UV-Vis assay as described above. 20 μM of each inhibitor was reacted with h15-LOX-2 in 2 mL reaction mixtures in the absence of AA. Controls included DMSO (vehicle), 10 μM AA, and enzyme. All reactions were conducted on a Perkin Elmer Lambda 40 UV/Vis spectrophotometer. […] Each reaction mixture was subsequently extracted and analyzed via RP-HPLC using a Higgins HAIsiL analytical column. […] Retention times and absorbance spectra of each of the reactions were compared to spectra of the controls.
In experiment [5] the target is h15-LOX-2 expressed in HEK293T cells (Homo sapiens (Human), UniProt O15296). As to the kind of experiment: Inhibition of h15-LOX-2 in HEK293T cells (15-HETE production). In kind it is cell-based. The note with it: h15-LOX-2/HEK293T cells, exogenous AA, triplicate.
Sequence of h15-LOX-2 expressed in HEK293T cells (O15296 whole entry): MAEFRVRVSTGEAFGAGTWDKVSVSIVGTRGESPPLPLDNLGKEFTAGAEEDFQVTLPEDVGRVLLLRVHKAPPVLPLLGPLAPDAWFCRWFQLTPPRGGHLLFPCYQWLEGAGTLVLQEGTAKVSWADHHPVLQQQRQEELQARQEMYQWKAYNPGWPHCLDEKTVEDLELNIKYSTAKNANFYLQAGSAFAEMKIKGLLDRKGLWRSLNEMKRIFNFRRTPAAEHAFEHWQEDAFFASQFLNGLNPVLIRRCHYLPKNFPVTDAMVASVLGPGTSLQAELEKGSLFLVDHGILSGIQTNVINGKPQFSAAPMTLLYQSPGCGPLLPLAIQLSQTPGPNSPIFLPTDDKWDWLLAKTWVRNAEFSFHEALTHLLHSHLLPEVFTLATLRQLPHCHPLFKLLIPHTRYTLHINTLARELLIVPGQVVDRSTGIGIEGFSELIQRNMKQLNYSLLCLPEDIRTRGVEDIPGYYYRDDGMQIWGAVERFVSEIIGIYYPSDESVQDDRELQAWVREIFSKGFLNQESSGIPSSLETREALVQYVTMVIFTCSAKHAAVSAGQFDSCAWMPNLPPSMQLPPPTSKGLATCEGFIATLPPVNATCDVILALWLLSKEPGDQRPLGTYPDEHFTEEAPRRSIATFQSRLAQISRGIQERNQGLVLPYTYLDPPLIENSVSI
Procedure: HEK293T cells over-expressing h15-LOX-2 were grown in MEM (Gibco) with 10% FBS (Gibco), 2 mM glutamine (Sigma), 100U/mL of penicillin/streptomycin (Gibco) and 640 μg/ml G418 sulfate (Fisher) as a selection agent. Cells were harvested at 90% confluence with trypsin-EDTA (Gibco) and washed once with MEM with 10% FBS. Cells were then washed with 0.1% glucose (Fisher) in PBS (Gibco). Cells were then diluted in 0.1% glucose in PBS to a concentration of 1 million cells/mL. Cells were treated with DMSO (0.2%) or inhibitor in DMSO and incubated at 37° C. for 20 min. Cells were then stimulated with 100 uM CaCl2) (Sigma), 5 μM Ca Ionophore A23187 (Sigma), and 1 μM arachidonic acid (NuCheck) for 10 min at 37° C. Cells were then acidified to 40 uM HCl and snap-frozen in liquid nitrogen.
In experiment [6] the target is T1, h15-LOX-2. The experiment in a line: Hydrogen/deuterium exchange mass spectrometry of h15-LOX-2. The settings on record: 20 μM inhibitor.
Procedure: Samples were incubated randomly at 10 time points (0, 10, 20, 45, 60, 180, 600, 1800, 3600, and 7200 s) at 25° C. using a water bath. For each given temperature and mutant, the time points (samples) were collected over the course of three to four days and randomized to reduce systematic error. Each sample (from a unique time point) was prepared and processed once. For the samples containing inhibitors, the inhibitor was added (20 μM final concentration) to the protein stock solution (at least one minute) prior to D2O addition. The specific inhibitor was also added to the D2O buffer at a final concentration of 20 μM prior to the exchange experiment.
Procedures from this point were conducted near 4° C. Prior to pepsin digestion, guanidine HCl (in citric acid, pH 2.4) was mixed with the samples to a final concentration of ca. 0.5 M. This solution contained DTT to the final concentration of 5 mM. […]
Deuterated, pepsin-digested samples of 15-LOX-2 were analyzed using an Agilent 1200 LC (Santa Clara, CA) that was connected in-line with the LTQ Orbitrap XL mass spectrometer (Thermo). Mass spectral data acquired for HDX measurements were analyzed using the software, HDX WorkBench. The percent deuterium incorporation was calculated for each of these peptides, taking into account the number of amide linkages (excluding proline residues) and the calculated number of deuterons incorporated. […]
Setting [7] is: read-out: IC50 (μM) (± SD), h15-LOX-2 SAR study, 10 μM AA, 0.01% TritonX-100.
[8] abbreviates: read-out: IC50 (μM) (± SD (μM)), h15-LOX-2, 10 μM AA, duplicate.
Where [9] appears, read: equilibrium constant of dissociation from the catalytic site, Dixon replot, 0.01% Triton X-100, read-out: Kic.
[10] abbreviates: read-out: h15-LOX-2 IC50, experimental values repeated in docking table.
The mark [11] stands for this setting: read-out: h15-LOX-2 IC50, full IC50 experiment, 10 μM AA, duplicate.

T1 sequence (O15296 whole entry): as above
Sequence of h15-LOX-1 (P16050 whole entry): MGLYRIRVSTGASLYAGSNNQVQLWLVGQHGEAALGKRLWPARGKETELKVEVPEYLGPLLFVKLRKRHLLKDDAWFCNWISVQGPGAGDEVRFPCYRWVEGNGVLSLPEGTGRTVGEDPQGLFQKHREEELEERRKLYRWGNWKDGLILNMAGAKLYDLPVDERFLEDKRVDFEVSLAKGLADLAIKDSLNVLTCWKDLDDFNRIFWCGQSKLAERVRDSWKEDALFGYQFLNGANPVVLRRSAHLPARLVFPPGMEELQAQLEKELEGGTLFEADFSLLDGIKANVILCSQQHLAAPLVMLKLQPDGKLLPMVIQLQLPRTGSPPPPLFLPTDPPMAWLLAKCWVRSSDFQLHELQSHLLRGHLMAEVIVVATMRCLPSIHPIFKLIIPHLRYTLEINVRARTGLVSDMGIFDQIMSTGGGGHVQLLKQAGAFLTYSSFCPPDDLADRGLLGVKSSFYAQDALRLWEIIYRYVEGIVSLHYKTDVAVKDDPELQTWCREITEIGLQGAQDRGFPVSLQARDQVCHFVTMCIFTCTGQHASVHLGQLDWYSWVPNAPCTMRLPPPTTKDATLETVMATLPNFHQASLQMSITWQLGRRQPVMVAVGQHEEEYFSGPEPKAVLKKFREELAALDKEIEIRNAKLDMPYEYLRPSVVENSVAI
Sequence of ovine COX-1 (P05979 25-600): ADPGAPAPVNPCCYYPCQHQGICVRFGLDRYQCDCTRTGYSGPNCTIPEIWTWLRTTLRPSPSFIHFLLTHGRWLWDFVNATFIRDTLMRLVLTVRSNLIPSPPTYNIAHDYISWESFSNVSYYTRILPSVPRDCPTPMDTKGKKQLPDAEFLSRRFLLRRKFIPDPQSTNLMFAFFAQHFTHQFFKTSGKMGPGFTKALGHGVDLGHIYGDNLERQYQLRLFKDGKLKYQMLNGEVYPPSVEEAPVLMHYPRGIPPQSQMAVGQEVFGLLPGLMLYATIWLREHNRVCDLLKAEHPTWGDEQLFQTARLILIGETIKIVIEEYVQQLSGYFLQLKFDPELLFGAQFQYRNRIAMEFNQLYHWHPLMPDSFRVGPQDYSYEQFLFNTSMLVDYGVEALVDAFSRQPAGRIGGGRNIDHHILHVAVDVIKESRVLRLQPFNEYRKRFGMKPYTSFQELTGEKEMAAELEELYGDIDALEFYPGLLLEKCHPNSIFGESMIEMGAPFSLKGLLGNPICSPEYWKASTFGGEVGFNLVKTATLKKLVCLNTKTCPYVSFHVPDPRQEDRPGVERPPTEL
Sequence of h5-LOX (P09917 whole entry): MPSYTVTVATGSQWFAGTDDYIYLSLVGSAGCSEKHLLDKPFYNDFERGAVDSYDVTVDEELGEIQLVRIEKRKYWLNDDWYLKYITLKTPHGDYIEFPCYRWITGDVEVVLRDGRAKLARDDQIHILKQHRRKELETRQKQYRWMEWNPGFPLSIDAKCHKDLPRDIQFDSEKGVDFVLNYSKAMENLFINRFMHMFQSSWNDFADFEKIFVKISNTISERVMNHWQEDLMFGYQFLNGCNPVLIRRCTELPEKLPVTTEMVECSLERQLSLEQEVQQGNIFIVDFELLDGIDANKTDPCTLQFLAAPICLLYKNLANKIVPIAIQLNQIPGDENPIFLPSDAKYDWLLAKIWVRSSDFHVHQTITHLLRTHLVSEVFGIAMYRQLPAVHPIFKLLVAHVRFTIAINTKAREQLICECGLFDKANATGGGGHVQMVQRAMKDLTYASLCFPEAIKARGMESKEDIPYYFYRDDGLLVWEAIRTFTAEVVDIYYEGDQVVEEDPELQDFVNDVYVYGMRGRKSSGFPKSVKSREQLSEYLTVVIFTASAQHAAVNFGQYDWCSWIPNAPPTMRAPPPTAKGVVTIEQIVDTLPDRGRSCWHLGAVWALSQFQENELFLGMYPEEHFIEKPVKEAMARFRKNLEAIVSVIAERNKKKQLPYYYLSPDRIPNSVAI
Sequence of h12-LOX (P18054 whole entry): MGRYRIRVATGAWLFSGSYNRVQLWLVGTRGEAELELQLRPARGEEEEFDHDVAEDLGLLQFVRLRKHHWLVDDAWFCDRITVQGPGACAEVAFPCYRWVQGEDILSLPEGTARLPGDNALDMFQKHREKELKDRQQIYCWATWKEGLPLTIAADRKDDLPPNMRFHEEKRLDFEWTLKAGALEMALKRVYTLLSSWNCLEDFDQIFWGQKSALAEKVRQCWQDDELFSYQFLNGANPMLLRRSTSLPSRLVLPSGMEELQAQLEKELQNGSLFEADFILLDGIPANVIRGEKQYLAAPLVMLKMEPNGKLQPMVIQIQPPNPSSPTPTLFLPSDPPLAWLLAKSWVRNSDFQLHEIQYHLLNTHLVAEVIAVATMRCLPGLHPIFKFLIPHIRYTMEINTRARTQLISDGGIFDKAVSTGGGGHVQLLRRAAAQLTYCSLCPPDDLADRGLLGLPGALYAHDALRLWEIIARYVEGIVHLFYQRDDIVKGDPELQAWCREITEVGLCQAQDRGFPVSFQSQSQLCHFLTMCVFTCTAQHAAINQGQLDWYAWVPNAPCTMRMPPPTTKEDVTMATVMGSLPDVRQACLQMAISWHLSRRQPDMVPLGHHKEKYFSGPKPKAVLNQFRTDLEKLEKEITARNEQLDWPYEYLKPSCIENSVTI
Procedure for h12-LOX: as §3
Procedure for h15-LOX-1: as §3
Procedure for h5-LOX: as §3

Regarding `Brc1ccc(CSc2nccn2-c2ccccc2)cc1` [Compound 106], the IC50 (usually the concentration needed to halve the response being measured) at ovine COX-1 is > 100 µM; at human recombinant COX-2, > 100 µM; on h5-LOX, > 100 µM; on h12-LOX it was > 100 µM; on h15-LOX-1, > 50 µM.
For the compound `O=C(O)CCCSc1nccn1-c1ccccc1` [Compound 112], on h15-LOX-2 [1], the inhibition (as a rule, the relative decrease from the control value, in per cent) at 20 µM stood at 8%. On h15-LOX-2 [1] (setting [7]), the IC50 is > 100 µM.
As to `Cc1ccc(-n2ccnc2SCC(=O)O)cc1C` [Compound 124], the inhibition at 20 µM at h15-LOX-2 [1] is 14%. For the same compound, the half-maximal inhibitory concentration (IC50) on h15-LOX-2 [1] (setting [7]) was > 100 µM.
The matching figures for `Cc1ccc(C)c(-n2ccnc2SCC(=O)O)c1` [Compound 119]: 4% and > 100 µM.
Turning to `O=C(CSc1nccn1-c1ccccc1)c1ccc(Br)cc1` [Compound 115], the inhibition at 20 µM on h15-LOX-2 [1] worked out at 51%. Besides, the IC50 at h15-LOX-2 [1] (setting [7]) is > 25 µM.
The matching figures for `Cc1ccc(-n2ccnc2SCC(=O)O)c(C)c1` [Compound 125]: 16% and > 50 µM.
With `Fc1ccc(CSc2nccn2-c2ccccc2)cc1` [Compound 102, 2-((4-fluorobenzyl)thio)-1-phenyl-1H-imidazole], on h15-LOX-2 [1], the inhibition at 20 µM is 35%. Also, the IC50 on h15-LOX-2 [1] (setting [8]) and on h15-LOX-2 [1] (setting [7]) was > 100 µM in each case.
Take `CCc1ccc(CSc2nccn2-c2ccccc2)cc1` [Compound 107]: the IC50 at ovine COX-1 is > 100 µM; at human recombinant COX-2 it was > 100 µM; at h15-LOX-2 [1] (setting [8]), 0.87 µM; on h15-LOX-2 [1] (setting [7]), 0.87 µM; at h15-LOX-2 [1] (setting [10]), 0.87 µM; on h15-LOX-2 [1] (setting [11]), 0.87 µM. For the same compound, the IC50 against h5-LOX was > 100 µM; against h12-LOX, > 100 µM; against h15-LOX-1 it was > 50 µM. Moreover, the Redox result at h15-LOX-2 [2] is “No”. For the same compound, the Ki stood at 0.9 µM on h15-LOX-2 [3] (setting [9]) and 3.4 µM on h15-LOX-2 [3] (equilibrium constant of dissociation from the secondary site, Dixon replot, 0.01% Triton X-100, read-out: Kiu). For the same compound, the “substrate activity with h15-LOX-2” value at h15-LOX-2 [4] is “not substrates”. The EC50 – broadly, the concentration needed to bring the measured effect to its halfway point – in experiment [5] was ~1 µM and 1.3 µM. Also, on h15-LOX-2 [1], the inhibition at 20 µM amounted to 98%.
As to `O=C(CSc1nccn1-c1ccccc1)NO` [Compound 111], the inhibition at 20 µM at h15-LOX-2 [1] came to 4%. The IC50 on h15-LOX-2 [1] (setting [7]) was > 100 µM.
For `N#Cc1cc(CSc2nccn2-c2ccccc2)ccc1F` [Compound 104, 2-fluoro-5-(((1-phenyl-1H-imidazol-2-yl)thio)methyl)benzonitrile], on h15-LOX-2 [1], the “potency against h15-LOX-2, SAR statement” value was “drastically decreased the potency” and the inhibition at 20 µM came out at 23%. For the same compound, the IC50 on h15-LOX-2 [1] (setting [7]) was > 100 µM.
For `Cc1cccc(-n2ccnc2SCC(=O)Nc2cc(C(F)(F)F)ccc2Cl)c1` [Compound 127], the inhibition at 20 µM on h15-LOX-2 [1] is 13%. Besides, the IC50 on h15-LOX-2 [1] (setting [7]) was > 100 µM.
Consider `Cc1cccc(-n2ccnc2SCC(=O)Nc2ccccc2C(F)(F)F)c1` [Compound 126], for which the inhibition at 20 µM at h15-LOX-2 [1] was 4%. Further, the IC50 at h15-LOX-2 [1] (setting [7]) is > 100 µM.
In the case of `CSc1ccc(CSc2nccn2-c2ccccc2)cc1` [Compound 103, 2-((4-(methylthio)benzyl)thio)-1-phenyl-1H-imidazole], the inhibition at 20 µM on h15-LOX-2 [1] came out at 84%. Besides, the IC50 on h15-LOX-2 [1] (setting [8]) and at h15-LOX-2 [1] (setting [7]) was 2.3 µM throughout.
Consider `Cc1ccc(NC(=O)CSc2nccn2-c2ccccc2)cc1` [Compound 118], for which the inhibition at 20 µM on h15-LOX-2 [1] was 18%. Moreover, the IC50 at h15-LOX-2 [1] (setting [7]) was > 50 µM.
Turning to `FC(F)(F)c1ccc(CSc2nccn2-c2ccccc2)cc1` [Compound 105], the IC50 was > 100 µM at ovine COX-1; > 100 µM at human recombinant COX-2; 0.34 µM on h15-LOX-2 [1] (setting [8]); 0.34 µM at h15-LOX-2 [1] (setting [7]); 0.34 µM at h15-LOX-2 [1] (setting [10]); 0.34 µM at h15-LOX-2 [1] (setting [11]). Besides, the figures for the IC50 against h5-LOX, on h12-LOX and on h15-LOX-1 were > 100 µM, > 100 µM and > 50 µM, respectively. For the same compound, the Redox result at h15-LOX-2 [2] was “No”. The Ki is 0.8 µM on h15-LOX-2 [3] (Dixon replot of slope versus [Inhibitor], unit given as M, read-out: Kic (FIG. 2 legend)) and 0.7 µM at h15-LOX-2 [3] (setting [9]). Moreover, the “substrate activity with h15-LOX-2” value on h15-LOX-2 [4] is recorded as “not substrates”. Besides, the EC50 in experiment [5] is ~1 µM and 0.75 µM. Moreover, at h15-LOX-2 [6] (bi-exponential fits), the “average HDX rate constants of peptides 173-184 and 184-191 in presence of inhibitor” value is listed as 2—and 4-times slower. Also, on h15-LOX-2 [6] (short time scales (<10 min), 25° C.), the “reduction in exchange of h15-LOX-2 peptides 173-184 and 184-191” value is listed as ≤ 20%. Further, at h15-LOX-2 [1] (ratio of h15-LOX-2 IC50 values), the “enhanced inhibition over inhibitor 536924” value is on record as ~10 fold. The inhibition at 20 µM on h15-LOX-2 [1] was determined as 100%.
Regarding `c1ccc(CCSc2nccn2-c2ccccc2)cc1` [Compound 110], on h15-LOX-2 [1], the “potency against h15-LOX-2, SAR statement” value is reported as “drastically decreased the potency” and the inhibition at 20 µM was 68%. Further, the IC50 on h15-LOX-2 [1] (setting [7]) was > 25 µM.
As to `O=C(CSc1nccn1-c1ccccc1)NCc1ccc(F)cc1` [Compound 117], the inhibition at 20 µM on h15-LOX-2 [1] amounted to 8%. Also, the concentration for half-maximal inhibition (IC50) on h15-LOX-2 [1] (setting [7]) is > 100 µM.
In the same order, the values of `Cc1cc(C)cc(-n2ccnc2SCC(=O)O)c1` [Compound 120] are 7% and > 100 µM.
Turning to `Cc1ccc(C(=O)CSc2nccn2-c2ccccc2)cc1` [Compound 113], the inhibition at 20 µM at h15-LOX-2 [1] stood at 56%. Also, the IC50 on h15-LOX-2 [1] (setting [7]) is > 25 µM.
On to `O=C(CSc1nccn1-c1ccccc1)c1ccc(Cl)cc1` [Compound 114], for which, at h15-LOX-2 [1], the inhibition at 20 µM stood at 62%. Besides, on h15-LOX-2 [1] (setting [7]), the IC50 is > 25 µM.
In the same order, the values of `CC(C)c1ccc(-n2ccnc2SCC(=O)O)cc1` [Compound 123] are 13% and > 100 µM.
On to `Cc1ccccc1CSc1nccn1-c1ccccc1` [Compound 108], for which, on h15-LOX-2 [1], the “potency against h15-LOX-2, SAR statement” value was “drastically decreased the potency” and the inhibition at 20 µM stood at 31%. Further, at h15-LOX-2 [1] (setting [7]), the IC50 is > 50 µM.
With `Cc1ccc(-n2ccnc2SCc2ccc(C(F)(F)F)cc2)cc1` [Compound 101, 1-(p-tolyl)-2-((4-(trifluoromethyl)benzyl)thio)-1H-imidazole], on h15-LOX-2 [1], the inhibition at 20 µM came to 97%. Further, the IC50 on h15-LOX-2 [1] (setting [7]) came out at 0.27 µM.
Consider `Cc1cccc(-n2ccnc2SCC(=O)O)c1C` [Compound 121], for which the inhibition at 20 µM at h15-LOX-2 [1] came out at 7%. Also, on h15-LOX-2 [1] (setting [7]), the IC50 is > 100 µM.
In the same order, the values of `Cc1cc(C)cc(NC(=O)CSc2nccn2-c2ccccc2)c1` [Compound 116] are 0% and > 100 µM.
In the same order, the values of `Cc1ccccc1-n1ccnc1SCC(=O)O` [Compound 122] are 8% and > 100 µM.
Take `Clc1cccc(CSc2nccn2-c2ccccc2)c1` [Compound 109]: at h15-LOX-2 [1], the “potency against h15-LOX-2, SAR statement” value is “drastically decreased the potency” and the inhibition at 20 µM was found to be 39%. In addition, the IC50 at h15-LOX-2 [1] (setting [7]) is > 50 µM.
